Test results from EP2019099A1, “Dpp-IV inhibitors” (Santhera Pharmaceuticals (Schweiz) AG, priority 2007, dated 2009).

Molecular target: T1, DPP-IV (Homo sapiens, UniProt P27487)
T1 construct: Soluble human DPP-IV lacking the transmembrane anchor (Gly31-Pro766); Pre-Pro-alpha-mating factor leader (secretion fusion) (N, cleaved yes); made in house
Test: Inhibition of DPP-IV peptidase activity, continuous fluorimetric assay (Gly-Pro-AMC cleavage)
Assay type: biochemical, human and porcine
Conditions: 50 pM DPP-IV, 16 µM substrate Gly-Pro-AMC, pH 7.4, 25 °C, values grouped in 2 classes
Experimental: Inhibition of DPP-IV peptidase activity was monitored with a continuous fluorimetric assay. This assay is based on the cleavage of the substrate Gly-Pro-AMC (Bachem) by DPP-IV, releasing free AMC. The assay is carried out in 96-well microtiterplates. In a total volume of 100 µL, compounds are preincubated with 50 pM DPP-IV employing a buffer containing 10mM Hepes, 150mM NaCl, 0.005% Tween 20 (pH 7.4). The reaction is started by the addition of 16 µM substrate and the fluorescence of liberated AMC is detected for 10 minutes at 25 °C with a fluorescence reader (BMG-Fluostar; BMG-Technologies) using an excitation wavelength of 370 nm and an emission wavelength of 450 nm. The final concentration of DMSO is 1 %. The inhibitory potential of the compounds were determined.
Soluble human DPP-IV lacking the transmembrane anchor (Gly31-Pro766) was expressed in a recombinant YEAST-strain as Pre-Pro-alpha-mating fusion. The secreted product (rhuDPP-IV-Gly31-Pro766) was purified from fermentation broth (>90% purity).
In table 1 are listed the IC50 values for inhibition of DPP-IV peptidase activity determined in assays as described above. The IC50 values were grouped in 2 classes: a ≤ 100 nM; b ≥101 nM and ≤ 1000 nM.

T1 sequence (P27487 31-766): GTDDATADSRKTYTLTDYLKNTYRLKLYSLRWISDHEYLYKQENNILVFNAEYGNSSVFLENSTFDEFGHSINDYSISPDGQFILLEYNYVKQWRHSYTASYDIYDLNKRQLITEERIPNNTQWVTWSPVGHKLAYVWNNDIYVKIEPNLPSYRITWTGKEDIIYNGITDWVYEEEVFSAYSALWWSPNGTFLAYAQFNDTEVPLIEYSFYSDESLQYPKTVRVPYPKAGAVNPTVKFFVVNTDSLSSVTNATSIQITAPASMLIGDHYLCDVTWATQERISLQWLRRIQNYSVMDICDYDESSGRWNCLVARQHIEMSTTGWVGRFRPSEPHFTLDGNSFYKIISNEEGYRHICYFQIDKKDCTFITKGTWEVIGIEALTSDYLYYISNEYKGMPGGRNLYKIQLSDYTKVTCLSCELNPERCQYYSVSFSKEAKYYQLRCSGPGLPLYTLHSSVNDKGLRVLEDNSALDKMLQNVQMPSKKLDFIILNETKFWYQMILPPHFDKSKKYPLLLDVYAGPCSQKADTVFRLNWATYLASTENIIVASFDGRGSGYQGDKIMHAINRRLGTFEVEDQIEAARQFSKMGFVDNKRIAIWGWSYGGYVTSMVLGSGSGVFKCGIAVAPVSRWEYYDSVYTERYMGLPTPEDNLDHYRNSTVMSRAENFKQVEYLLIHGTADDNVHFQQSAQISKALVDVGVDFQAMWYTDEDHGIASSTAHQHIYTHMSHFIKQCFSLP

IC50, ≤ 100 nM:
Cc1ncc(C(=O)N2CCC([C@H](N)Cc3cc(F)c(F)cc3F)CC2)c(C)n1 [Example 1, {4-[(R)-1-Amino-2-(2,4,5-trifluoro-phenyl)-ethyl]-piperidin-1-yl}-(2,4-dimethyl-pyrimidin-5-yl)-methanone]
Cc1nc(C(F)(F)F)ncc1C(=O)N1CCC([C@H](N)Cc2cc(F)c(F)cc2F)CC1 [Example 2, {4-[(R)-1-Amino-2-(2,4,5-trifluoro-phenyl)-ethyl]-piperidin-1-yl}-(4-methyl-2-trifluoromethylpyrimidin-5-yl)-methanone]
N[C@H](Cc1cc(F)c(F)cc1F)C1CCN(C(=O)c2cnc(C(F)(F)F)nc2C2CC2)CC1 [Example 4]
CC(C)c1ncc(C(=O)N2CCC([C@H](N)Cc3cc(F)c(F)cc3F)CC2)c(C2CC2)n1 [Example 5]
Cc1ncc(C(=O)N2CCC([C@H](N)Cc3cc(F)c(F)cc3F)CC2)c(C(F)(F)F)n1 [Example 6]
Cc1nc(N)ncc1C(=O)N1CCC([C@H](N)Cc2cc(F)c(F)cc2F)CC1 [Example 7]
N[C@H](Cc1cc(F)c(F)cc1F)C1CCN(C(=O)c2cnc(-c3ccccn3)nc2C(F)(F)F)CC1 [Example 8]
Cc1nc(-c2ccccc2)ncc1C(=O)N1CCC([C@H](N)Cc2cc(F)c(F)cc2F)CC1 [Example 9]
